Details: Liquid, Hot wire method

FC(F)CC(F)(F)F [1,1,1,3,3-pentafluoropropane]
Details	thermal conductivity [W/m/K]
222.11 K, 10047 kPa	0.1156
222.11 K, 15756 kPa	0.117
222.12 K, 15761 kPa	0.1169
222.12 K, 21261 kPa	0.1184
222.12 K, 21267 kPa	0.1186
222.13 K, 27470 kPa	0.1201
222.13 K, 27478 kPa	0.1202
222.13 K, 33686 kPa	0.1212
222.16 K, 33712 kPa	0.1215
222.37 K, 39767 kPa	0.1235
222.37 K, 47190 kPa	0.1251
222.38 K, 39761 kPa	0.1235
222.38 K, 47197 kPa	0.125
222.38 K, 54316 kPa	0.1267
222.38 K, 54318 kPa	0.1267
222.38 K, 61389 kPa	0.1284
222.38 K, 67942 kPa	0.1297
222.39 K, 61385 kPa	0.1283
222.39 K, 67938 kPa	0.1298
222.5 K, 255 kPa	0.1121
222.5 K, 4863 kPa	0.1134
222.5 K, 4873 kPa	0.1134
222.51 K, 9999 kPa	0.1152
222.51 K, 10021 kPa	0.1152
222.51 K, 15761 kPa	0.1166
222.51 K, 15763 kPa	0.1166
222.51 K, 21262 kPa	0.1182
222.51 K, 21266 kPa	0.1185
222.51 K, 27487 kPa	0.12
222.52 K, 245 kPa	0.112
222.52 K, 27479 kPa	0.1198
222.52 K, 33833 kPa	0.1215
222.53 K, 33800 kPa	0.1213
222.77 K, 67930 kPa	0.1298
222.78 K, 39758 kPa	0.1234
222.78 K, 39765 kPa	0.1236
222.78 K, 47189 kPa	0.1249
222.78 K, 47193 kPa	0.125
222.78 K, 54318 kPa	0.1265
222.78 K, 54319 kPa	0.1266
222.78 K, 61395 kPa	0.1281
222.78 K, 61401 kPa	0.1282
222.78 K, 67928 kPa	0.1296
222.94 K, 4870 kPa	0.113
222.94 K, 10017 kPa	0.1147
222.94 K, 10023 kPa	0.1147
222.94 K, 15762 kPa	0.1162
222.94 K, 15767 kPa	0.1163
222.94 K, 21269 kPa	0.1181
222.94 K, 21277 kPa	0.118
222.94 K, 27478 kPa	0.1199
222.94 K, 27487 kPa	0.1197
222.94 K, 33837 kPa	0.1213
222.94 K, 33847 kPa	0.1213
222.95 K, 242 kPa	0.1115
222.95 K, 262 kPa	0.1116
222.95 K, 4862 kPa	0.113
223.19 K, 67923 kPa	0.1295
223.2 K, 61398 kPa	0.128
223.2 K, 67921 kPa	0.1295
223.21 K, 54306 kPa	0.1263
223.21 K, 61402 kPa	0.128
223.22 K, 39767 kPa	0.1231
223.22 K, 47186 kPa	0.1248
223.22 K, 47187 kPa	0.1248
223.22 K, 54313 kPa	0.1265
223.23 K, 39773 kPa	0.1231
223.38 K, 33868 kPa	0.1211
223.39 K, 33861 kPa	0.1211

Source: the NIST ThermoML archive (doi:10.1021/acs.jced.6b00350)
